According to publication PMC4912613, “A broad analysis of resistance development in the malaria parasite” (Nature Communications, 2016):

Key:
[1] = test system: ATQ-R5 (cytb F267V, parent 3D7); test: Cross-resistance EC50 assay, ATQ-R5; type: cell-based, Plasmodium falciparum; details: Plasmodium falciparum, 3D7; SYBR green 72 hour assay; asynchronized parasites; 96-well or 1536-well format; ATQ-R5
Description: (§1) To evaluate potential overlapping activity against known antimalarial drug targets, we performed dose-response studies with each compound against our assembled set of drug-resistant lines and their corresponding parents, in an asexual blood stage proliferation assay (Table 1). Comparisons were made to the drug-sensitive strain 3D7 when a parent was unavailable (TM90C2A, W2 and Dd2). As laboratories conducted EC50 assays with different strains and protocols, all comparisons were made between assays from the same laboratory and under the same assay conditions. Compounds displaying >5-fold EC50 shifts relative to the parent or sensitive strain were flagged as having potentially non-novel targets. Average fold shifts per strain ranged from 0.82 to 2.34, with a median of 1.23 indicating there was not common resistance to any one resistant clone. No resistance patterns were observed when classifying the compounds based on chemical structure, but this was not surprising given the diversity of compounds chosen. On the other hand, given that these confirmed compounds were derived from larger unconfirmed hit lists to which some filtration criteria may have been applied (for example, elimination of obvious dihydrofolate reductase inhibitors[32]), some[10][11][12][13] pre-existing bias may exist in the set. […]
(§2) Alternatively, a SYBR Green-based proliferation approach was used for the 72-h assay, as previously described. Briefly, a culture of either synchronized or asynchronous parasitized RBCs (0.3% parasitemia and 4% haematocrit) in screening medium (identical to supplemented medium above except no serum was added) was exposed to serial drug dilutions. Plates were incubated at 37 °C and gassed with 93% N2, 4% CO2 and 3% O2 for 72 h. Following incubation, 10 × SYBR Green I (Invitrogen; supplied in 10,000 × concentration) in lysis buffer ([…], 5 mM EDTA, 0.16% Saponin wt per vol and 1.6% Triton X vol per vol) was added to the wells and the plates were incubated overnight at room temperature before plate reading. EC50 assays were repeated three times, taking the average EC50 value from each assay set, and removing any outliers using a single iteration of Grubbs' test, eliminating values with z-scores above the critical z-value (α=0.05). The raw EC50 values for synchronized parasites assayed in a 384-well format are listed in Supplementary Data 4. The raw EC50 values for asynchronous parasites assayed in a 96 or 1536-well format are listed in Supplementary Data 5.
(§3) EC50 values for each strain were compared with those of the corresponding parent strain to determine fold-shift changes and identify resistance. To minimize the cause variance between assays, all comparisons were conducted between strains assayed under identical conditions. A one-way ANOVA followed by a Dunnet's post-test was conducted in GraphPad Prism to identify significant changes between the parent and resistant strain.

[2] = test system: PfCRT-Q352R (parent Dd2); test: Cross-resistance EC50 assay, PfCRT-Q352R; type: cell-based; details: Plasmodium falciparum, DD2, 72 h, read-out: PfCRT:Q352R (Dd2 Parent) Average EC50
Description: as §1, §2, §3

[3] = test system: TM90C2A (DHFR, folate pathway; compared with 3D7); test: Cross-resistance EC50 assay, TM90C2A; type: cell-based; details: Plasmodium falciparum, 48 h, read-out: TM90C2A (3D7 Parent) Average EC50
Description: To evaluate potential overlapping activity against known antimalarial drug targets, we performed dose-response studies with each compound against our assembled set of drug-resistant lines and their corresponding parents, in an asexual blood stage proliferation assay (Table 1). Comparisons were made to the drug-sensitive strain 3D7 when a parent was unavailable (TM90C2A, W2 and Dd2). As laboratories conducted EC50 assays with different strains and protocols, all comparisons were made between assays from the same laboratory and under the same assay conditions. Compounds displaying >5-fold EC50 shifts relative to the parent or sensitive strain were flagged as having potentially non-novel targets. Average fold shifts per strain ranged from 0.82 to 2.34, with a median of 1.23 indicating there was not common resistance to any one resistant clone. No resistance patterns were observed when classifying the compounds based on chemical structure, but this was not surprising given the diversity of compounds chosen. On the other hand, given that these confirmed compounds were derived from larger unconfirmed hit lists to which some filtration criteria may have been applied (for example, elimination of obvious dihydrofolate reductase inhibitors[32]), some[10][11][12][13] pre-existing bias may exist in the set.
The 48-h assay was carried out in a 96-well format following standard methods using the ^3H-hypoxanthine incorporation assay. The raw EC50 values corresponding to this assay can be found in Supplementary Data 3. Briefly, this assay relies on the parasite incorporation of labelled hypoxanthine that is proportional to P. falciparum growth. A culture of parasitized RBCs (0.5% parasitemia with a percentage of ring stage higher than 70% of total parasitemia, 2.0% haematocrit) in RPMI-1640, […] and 5 μM hypoxanthine was exposed to drug serial dilutions. Plates were incubated for 24 h at 37 °C, 5% CO2, 5% O2 and 90% N2. After 24 h of incubation, ^3H-hypoxanthine was added and plates were incubated for an additional 24-h period. After that, parasites were harvested on a glass fibre filter using a TOMTEC Cell Harvester 96. Filters were dried and melt-on scintillator sheets were used to determine the incorporation of ^3H-hypoxanthine. Radioactivity was measured using a microbeta counter. Data were normalized using the incorporation of the positive (parasitized RBCs without drug) and negative (same culture with artesunate at 2 μM) controls. All assays were conducted in triplicate using three independently grown cultures, and EC50 values were determined using the XLfit add-in module for Excel (version 2.3.1) from Grafit (version 5.3.1.3), where parameter h is the assay hill slope, x is the compound concentration and y is the inhibition of growth effect. The XLfit equation is: […]
as §3

[4] = test system: Stage 5 gametocytes from P. falciparum NF54; test: Late-stage (stage V) gametocyte survival assay, MitoTracker; type: cell-based, Plasmodium falciparum; details: for EC50: Plasmodium falciparum, P. falciparum NF54, 72 h, read-out: Stage 5 Gametocyte EC50; for EC50 fold shift compared to asexual stage: Stage 5 Gametocyte EC50: gametocyte EC50 / 3D7 EC50
Procedure: The second assay was a late-stage (stage V) gametocyte survival assay, which predicts transmission-blocking activity. […] Positive and negative control compounds included puromycin (0.61±0.11 μM) and atovaquone (> 12.50 μM), respectively.
To test sexual-stage activity, compounds were tested against late-stage gametocytes using a MitoTracker fluorescent-based assay. Specifically, synchronized stage V gametocytes were incubated with compound for 72 h. MitoTracker Red CMXRos (Life Technologies) was added to each well (final concentration: 500 nM) together with saponin to lyse the RBCs. Each plate was then imaged with an Operetta High Content Imaging System (Perkin Elmer) for fluorescence (590–640 nm). Varying levels of compound concentration were used (1.25 μM or 12.5 μM) due to the stock concentration supplied.
The gametocytocidal activity was measured using high-content image analysis software (Harmony, Perkin Elmer). The readout was based on number of metabolically active gametocytes per well.

[5] = test system: GNF449-R2 (PfATP4 I203L and P990R, parent Dd2); test: Cross-resistance EC50 assay, GNF449-R2; type: cell-based; details: Plasmodium falciparum, SYBR green 72 hour assay, asynchronized parasites, 96-well or 1536-well format
Description: as §1, §2, §3

[6] = test system: GNF156R (PfCARL L830V, S1076I and M81I, parent Dd2); test: Cross-resistance EC50 assay, GNF156R; type: cell-based; details: Plasmodium falciparum, SYBR green 72 hour assay, asynchronized parasites, 96-well or 1536-well format
Description: as §1, §2, §3

Row | Compound | EC50 [1] | EC50 [2] | EC50 [3] | EC50 [4] | EC50 fold shift compared to asexual stage: Stage 5 Gametocyte EC50 [4] | EC50 [5] | EC50 [6]
1 | Cc1ccc(S(=O)(=O)n2cc(-c3ccnc(N)c3)c3cc(Br)cnc32)cc1 [MMV024114] | 1.72 µM | 0.499 µM | 1.05 µM | > 12.5 µM | > 47 | 3.34 µM | 2.9 µM
2 | CNCc1ccc2nc(-c3coc(Cc4cc(Cl)ccc4OCC(C)C)n3)[nH]c2c1.Cl.Cl [MMV026596] | 0.376 µM | 0.451 µM | 0.267 µM | 6.35 µM | 18.35 | 0.307 µM | 0.414 µM
3 | COc1cc(-c2nc(-c3ccccc3)c(-c3ccccc3)[nH]2)ccc1OCCN(C)C [MMV027496] | 0.302 µM | 0.211 µM | 0.3 µM | > 12.5 µM | > 112 | 2.33 µM | 1.8 µM
4 | Cc1nc2ccc3ccc(CNc4ccc(C(=O)CC(CCC(=O)O)C(=O)O)cc4)cc3c2c(=O)[nH]1.Cl (centres unmarked) [MMV027634] | 0.13 µM | 0.038 µM | 0.064 µM | > 12.5 µM | > 543 | 0.204 µM | 0.229 µM
5 | CC(C)c1cccc(C(NC(=O)C2Cc3ccccc3CN2C(=O)c2cccc(N3CCOCC3)c2)C2CCCC2)c1 (centres unmarked) [MMV028038] | 0.839 µM | 0.314 µM | 0.287 µM | 1.18 µM | 2.19 | 0.555 µM | 0.654 µM
6 | O=C(NCC(CCCN1CCC(c2c[nH]c3ccccc23)CC1)c1ccccc1)Nc1ccc(Cl)c(Cl)c1 (centres unmarked) [MMV029272] | 4.49 µM | 0.267 µM | 0.415 µM | 2.23 µM | 16.40 | 0.373 µM | 0.332 µM
7 | CC(C)(C)OC(=O)N1CCN(c2ccccc2NC(=O)c2cccc(C(F)(F)F)c2Oc2ccc(F)cc2)CC1 [MMV030666] | 0.251 µM | 0.315 µM | 0.544 µM | 0.993 µM | 2.04 | 0.248 µM | 0.364 µM
8 | CC(NCc1ccccc1)c1cc(Cl)ccc1O (centres unmarked) [MMV665789] | 0.29 µM | 0.571 µM | 1.48 µM | > 1.25 µM | > 1 | 0.201 µM | 0.681 µM
9 | FC(F)(F)c1cccc(Nc2nc3ccccc3nc2Nc2cccc(C(F)(F)F)c2)c1 [MMV665794] | 0.381 µM | 0.116 µM | 0.073 µM | 0.836 µM |  | 0.37 µM | 0.135 µM
10 | O=C(Nc1ccc(Cl)c(Cl)c1)Nc1ccc(Cl)c(Cl)c1 [MMV665852] | 2.71 µM | 0.905 µM | 0.566 µM | > 1.25 µM |  | 1.95 µM | 0.75 µM
